Measured values from patent US10767162B2, “Methods for differentiation” (PRESIDENT AND FELLOWS OF HARVARD COLLEGE, priority 2014, dated 2020).

System: ES cell line that constitutively over-expressed the transcription factor MyoD
Type: cell-based
Conditions: for effect on Pax3 expression: continuous treatment during differentiation; for effect on MyoG (myogenin) expression: continuous treatment for 7 days, high or low serum; for effect on MyoG (myogenin) expression / effect on MyoG expression under low serum conditions: MyoG measured on Day 7; for effect on MyoG expression under low serum conditions: low serum (2% HS+Insulin)
Procedure: Time courses of differentiation were run for 7 days similarly to the previous growth factor withdrawal experiments. MyoD was induced at Day −1, and LIF was removed at Day 0. Cells were kept in either high serum (15% FBS) or low serum (2% HS+Insulin) media throughout the time course. Drug treatments were applied continuously at the designated concentrations for the entire duration of the time course, with daily media change. mRNA expression levels were measured by qRT-PCR. […] All measurements are relative to a DMSO control for the specific condition (i.e. low serum values are still higher than in high serum). L=lethal; drug had strong anti-survival effects so no data was collected. Error bars indicate S.E.M. (n=2).
Perturbations were made both under high and low serum conditions and were extended throughout the time course of differentiation. LY294002 is a potent broad inhibitor of phosphoinositide-3-kinases (PI3Ks), and when applied continuously to ES cells over 7 days induced a significant 2.7 fold increase in Pax3 mRNA expression (FIG. 4). This increase was observed both in high serum and low serum media. […] Myc drives cell cycle progression and growth. […] Both are indirect inhibitors of Myc activity; as yet there are no direct pharmacologic inhibitors of the Myc protein.
The effects of inhibiting cyclin-dependent kinases (kinases that are more centrally involved in cell cycle control) and MAP kinase, which very often is involved in cell cycle regulation, were also examined. Roscovitine is a broad CDK inhibitor that blocks a number of family members, including CDK1, CDK2, and CDK5. After continuous treatment throughout the 7 days of differentiation in the time course, roscovitine had no effect on Pax3 expression (FIG. 4). It also had little effect on the later expression of MyoG, either under high or low serum conditions. […] However, the MAPK inhibitor PD98059, which blocks MEK1/2, had no effect on Pax3 and induced MyoG only under low serum conditions (FIG. 4 bottom). The protein CDK inhibitor p21, which is much more specific than roscovitine, blocks CDK2 and prevents entry into S-phase. In ES cells p21 is expressed at low levels, but gradually increases during the course of ES cell differentiation (13). An mES cell line that constitutively overexpresses the p21 protein bicistronically with a mCherry tag (fused to the C-terminus with a 2A peptide) was developed. […] Thus, within the set of cell cycle inhibitors examined, stage-specific and condition-specific effects on gene expression were observed.
ES culture and differentiation. The ES cells contain MyoD (and associated puromycin resistance marker) expressed from a EF1alpha promoter (5). MyoD could be expressed once a loxP segment inserted between the promoter and transgene was excised by a cre recombinase fused to the estrogen receptor. ES cells were cultured in LIF and standard conditions containing 15% FBS, non-essential amino acids, L-glutamine, penicillin/streptomycin, and beta-mercaptoethanol. To induce MyoD, cells were treated for 24 hrs with 1 μM 4OHT (Sigma) in ES media. Reduced serum media consisted of DMEM and 2% horse serum (Invitrogen) plus 10 μg/ml insulin (to maintain cell survival)(Sigma) with sodium pyruvate and penicillin/streptomycin. During differentiation, cells were treated with 1 μg/ml puromycin continuously to select for cells which maintained MyoD expression. N2B27 components/supplements and Knock-out serum replacement were purchased from Invitrogen. LIF was used at a 1000 U/ml and Bmp4 at 10 ng/ml.
Drugs. The PI3K inhibitor LY294002, Roscovitine, the MEK1/2 inhibitor PD98059, and 10058-F4 were purchased from Sigma. The E2F inhibitor HLM006474 was purchased from Millipore. PD0332991 was purchased from SelleckChem. JQ1 was purchased from ApexBio.
RNA isolation and RT-PCR. RNA was isolated using RNAeasy plus kit (Qiagen). Reverse transcription was performed using iScript™ cDNA synthesis (Bio-rad). […]

[1] = Pax3 measured on Day 3, relative to DMSO control

Molecule | effect on Pax3 expression [1] | effect on MyoG (myogenin) expression | cell survival on continuing treatment | increase in Pax3 mRNA expression (applied continuously over 7 days, observed both in high serum and low serum media, relative to DMSO control, Pax3 measured on Day 3) | effect on MyoG expression under low serum conditions
CC(=O)c1c(C)c2cnc(Nc3ccc(N4CCNCC4)cn3)nc2n(C2CCCC2)c1=O [PD0332991] | lack of effect | lack of effect | – | – | –
CC[C@H](CO)Nc1nc(NCc2ccccc2)c2ncn(C(C)C)c2n1 [roscovitine, Roscovitine] | no effect | little effect | – | – | –
Cc1sc2c(c1C)C(c1ccc(Cl)cc1)=N[C@@H](CC(=O)OC(C)(C)C)c1nnc(C)n1-2 [JQ1] | an increase in Pax3 early expression | later suppression of MyoG expression | – | – | –
O=c1cc(N2CCOCC2)oc2c(-c3ccccc3)cccc12 [LY294002] | – | – | cell death | 2.7 fold | –
CCc1ccc(/C=C2/SC(=S)NC2=O)cc1 [10058-F4] | suppressive effects | suppressive effects | – | – | –
CCOc1ccc(C(Nc2ccccn2)c2ccc3ccc(C)nc3c2O)cc1C (stereo not shown) [HLM006474] | induced Pax3 | suppressed MyoG expression | – | – | –
COc1cccc(-c2cc(=O)c3ccccc3o2)c1N [PD98059] | no effect | – | – | – | induced MyoG
p21: protein CDK inhibitor, blocks CDK2; constitutively overexpressed in an mES cell line with a mCherry tag (protein, UniProt P39689 2-159, looked up, mCherry tag) Cyclin-dependent kinase …: SNPGDVRPVPHRSKVCRCLFGPVDSEQLRRDCDALMAGCLQEARERWNFDFVTETPLEGNFVWERVRSLGLPKVYLSPGSRSRDDLGGDKRPSTSSALLQGPAPEDHVALSLSCTLVSERPEDSPGGPGTSQGRKRRQTSLTDFYHSKRRLVFCKRKP | no effect | – | – | – | upregulated MyoG
